≈ marks a conversion by molar mass, not a printed value. Marks after values point to notes of the source that are not given here. Numbered stars: 1 amine (or outer) side, 2 acyl side, 3 side chain; on linkers, the order of the positions; unused ones are H or OH. Square brackets hold non-standard residues; d marks the D form. Side chains are listed from the residue outwards. Peptide text beside a SMILES is read from it. * marks the point of attachment. C18 diacid = O=C(O)CCCCCCCCCCCCCCCCC(=O)*; γGlu = O=C(O)[C@H](CCC(=O)[*:2])N[*:1]; AEEA = NCCOCCOCC(=O)O; Aib = CC(C)(N)C(=O)O
Key:
human GLP-1 receptor = target: T1, human GLP-1 receptor (Homo sapiens, UniProt P43220); test: GLP-1 receptor mediated cAMP production in vitro; assay type: cell-based; settings: cells transfected with human GLP-1 receptor, 20 min at 37° C., read-out: GLP-1R (nM EC50)
T1 construct: expressed in transfected cells; host or cells: Chinese guinea pig lung cells [sic]
T1 sequence (P43220 24-463): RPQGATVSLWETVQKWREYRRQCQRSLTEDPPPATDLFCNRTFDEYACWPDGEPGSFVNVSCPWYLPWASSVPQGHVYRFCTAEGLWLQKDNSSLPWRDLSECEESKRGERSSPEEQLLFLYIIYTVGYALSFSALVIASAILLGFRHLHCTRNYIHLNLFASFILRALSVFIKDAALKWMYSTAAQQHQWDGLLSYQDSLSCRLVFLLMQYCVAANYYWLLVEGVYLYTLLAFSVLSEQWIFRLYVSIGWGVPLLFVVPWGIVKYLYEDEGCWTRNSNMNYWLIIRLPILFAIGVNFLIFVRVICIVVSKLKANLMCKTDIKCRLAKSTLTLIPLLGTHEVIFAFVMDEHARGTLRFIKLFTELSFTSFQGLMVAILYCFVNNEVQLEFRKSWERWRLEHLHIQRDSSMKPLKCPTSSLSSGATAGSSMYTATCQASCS
From the text: (§1) The medium was removed, the cells were lysed, and cAMP values were detected referring to the detection method described for the assay kit.

GC receptor = target: T2, GC receptor (Homo sapiens, UniProt P47871); test: GC receptor mediated cAMP production in vitro (HEK293 cells transfected with GC receptor); assay type: cell-based; settings: 20 min at 37° C., read-out: GCGR (nM EC50)
T2 construct: expressed in transfected cells; host or cells: HEK293 cells
T2 sequence (P47871 26-477): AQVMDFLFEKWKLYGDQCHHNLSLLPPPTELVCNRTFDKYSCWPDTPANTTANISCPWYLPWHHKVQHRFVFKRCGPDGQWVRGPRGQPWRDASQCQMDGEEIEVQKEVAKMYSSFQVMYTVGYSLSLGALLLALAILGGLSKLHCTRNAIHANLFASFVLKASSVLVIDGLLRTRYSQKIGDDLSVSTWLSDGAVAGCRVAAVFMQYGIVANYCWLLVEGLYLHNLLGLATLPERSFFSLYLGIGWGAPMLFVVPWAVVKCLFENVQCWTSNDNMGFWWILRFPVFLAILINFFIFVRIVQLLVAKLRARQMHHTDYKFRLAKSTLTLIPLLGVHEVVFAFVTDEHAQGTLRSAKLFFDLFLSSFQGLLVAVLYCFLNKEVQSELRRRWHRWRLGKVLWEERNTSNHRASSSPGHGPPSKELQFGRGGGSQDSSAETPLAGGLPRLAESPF
From the text: as §1

[1] = Effect on body weight of DIO mice after 14 days' administration; assay type: in vivo, C57BL/6J mice; settings: DIO mice; for body weight change rate, Table 3: subcutaneous injection every day for 14 days, (initial−last)/initial, positive values indicate a decrease; for body weight reduction (in words): 14 days, conclusions on Tables 3 and 5
Procedure, shortened: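 C57BL/6J mice on H10060 high-fat diet for 34 weeks (DIO; 45.0–52.0 g), 5 per group, dosed subcutaneously once daily for 14 days; controls received saline. Body weight change (%) = (initial − last-day weight)/initial weight; positive values mean loss.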

[2] = Glucose tolerance test in glucose-loaded DIO mice; assay type: in vivo; settings: for AUC of blood glucose, Table 4: DIO mice fasted 16 h, glucose 1 g/kg i.p. 1 h after s.c. administration, 0.5, 1, 1.5 h; for AUC reduction rate (%), Table 4: blood glucose inhibition rate compared with model control group, glucose 1 g/kg i.p.; for AUC reduction rate (%), Table 4 / glucose tolerance / blood glucose lowering (in words): DIO mice; for glucose tolerance / blood glucose lowering (in words): conclusions on Tables 4 and 6
Procedure, shortened: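 DIO mice fasted 16 h received compound subcutaneously; 1 h later, glucose 1 g/kg was given intraperitoneally. Blood glucose measured at 0.5, 1 and 1.5 h; AUC compared with model control group to give blood glucose inhibition rate (%).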

[3] = Short-term administration: food intake and body weight in DIO mice; assay type: in vivo; settings: 30 nmol/kg once every 24 h, twice, − decrease; for Rate of change in food intake (%): at 48 hours vs day before administration; for Body weight change: at 48 hours
Procedure, shortened: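 DIO mice (mean body weight 52.5 g), 5 per group, dosed at 30 nmol/kg every 24 h for two doses, in 10 mM PBS pH 7.4; controls received solvent. Food intake and body weight at 48 h expressed as change rate versus the day before dosing.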

physchem = assay type: physicochemical
[4] = Accelerated chemical stability in injection solvent system (HPLC-UV); assay type: physicochemical; settings: 14 days, phosphate buffer pH 7.3 with Tween 80 and phenol, main peak area vs day 0
Procedure, shortened: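 Compound dissolved in 10 mM pH 8.5 sodium hydrogen phosphate buffer, adjusted to pH 7.3, with Tween 80 and phenol added. Solutions stored 14 days at 10 °C and 37 °C; HPLC-UV main-peak area by normalisation compared against day 0.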

[5] = pH 7.5, Solubility, pH 7.5, 10 mM phosphate buffer
[6] = pH 7.5, Solubility, pH 7.5, 20 mM phosphate buffer
[7] = pH 8, Solubility, pH 8.0, 10 mM phosphate buffer
[8] = pH 8, Solubility, pH 8.0, 20 mM phosphate buffer
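For Solubility in this document: compound added at 2 mg per mL of phosphate buffer, with the dissolved amount determined in the supernatant.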

SMILES	EC50 (human GLP-1 receptor)	EC50 (GC receptor)	body weight change rate, Table 3 [1]	AUC of blood glucose, Table 4 [2]	AUC reduction rate (%), Table 4 [2]	Rate of change in food intake (%) [3]	Body weight change [3]	solubility (physchem; [5])	solubility (physchem; [6])	solubility (physchem; [7])	solubility (physchem; [8])	Change in purity % (10° C.) [4]	Change in purity % (37° C.) [4]	body weight reduction (in words) [1]	glucose tolerance / blood glucose lowering (in words) [2]
CCCCCCCCCCCCCCCC(=O)N[C@@H](CCC(=O)N[C@@H](CCC(=O)NCCCC[C@H](NC(=O)[C@H](CC(=O)O)NC(=O)[C@H](CO)NC(=O)[C@@H](NC(=O)[C@H](Cc1ccccc1)NC(=O)[C@@H](NC(=O)CNC(=O)[C@H](CCC(N)=O)NC(=O)C(C)(C)NC(=O)[C@@H](N)Cc1c[nH]cn1)[C@@H](C)O)[C@@H](C)O)C(=O)N[C@@H](CO)C(=O)N[C@@H](CCCCN)C(=O)N[C@@H](Cc1ccc(O)cc1)C(=O)N[C@@H](CC(C)C)C(=O)N[C@@H](CCC(=O)O)C(=O)N[C@@H](CCC(=O)O)C(=O)N[C@@H](CCCNC(=N)N)C(=O)N[C@@H](C)C(=O)N[C@@H](C)C(=O)N[C@@H](CCCCN)C(=O)N[C@@H](CCC(=O)O)C(=O)N[C@@H](Cc1ccccc1)C(=O)N[C@H](C(=O)N[C@@H](C)C(=O)N[C@@H](Cc1c[nH]c2ccccc12)C(=O)N[C@@H](CC(C)C)C(=O)N[C@@H](CCC(=O)O)C(=O)N[C@@H](C)C(=O)NCC(=O)NCC(=O)N1CCC[C@H]1C(=O)N[C@@H](CO)C(=O)N[C@@H](CO)C(=O)NCC(N)=O)C(C)C)C(=O)O)C(=O)O [Compound 4] (HELM PEPTIDE1{H.[Aib].Q.G.T.F.T.S.D.K.S.K.Y.L.E.E.R.A.A.K.E.F.V.A.W.L.E.A.G.G.P.S.S.G.[am]}|PEPTIDE2{[CCCCCCCCCCCCCCCC(=O)[*:2]].[gGlu].[gGlu]}$PEPTIDE1,PEPTIDE2,10:R3-3:R2$$$V2.0; N-terminus assumed)	0.051 nM	0.024 nM	26.0%	9.02 ± 1.74 mmol·h/L	57.4** %	−42%	-1.5 g	1.82 mg/mL (≈ 437 µM)	1.22 mg/mL (≈ 293 µM)	> 2 mg/mL	> 2 mg/mL	−0.9%	−3.7%		
CC(C)C[C@H](NC(=O)[C@H](Cc1c[nH]c2ccccc12)NC(=O)[C@H](CCC(=O)O)NC(=O)[C@@H](NC(=O)[C@H](Cc1ccccc1)NC(=O)[C@H](CCC(=O)O)NC(=O)[C@H](CCCCNC(=O)COCCOCCNC(=O)COCCOCCNC(=O)CC[C@H](NC(=O)CCCCCCCCCCCCCCCCC(=O)O)C(=O)O)NC(=O)[C@H](C)NC(=O)[C@H](CCCNC(=N)N)NC(=O)[C@H](CCCCN)NC(=O)[C@H](CCC(=O)O)NC(=O)[C@H](CCC(=O)O)NC(=O)[C@H](CC(C)C)NC(=O)[C@H](Cc1ccc(O)cc1)NC(=O)[C@H](CCCCN)NC(=O)[C@H](CO)NC(=O)[C@H](Cc1ccc(O)cc1)NC(=O)[C@H](CC(=O)O)NC(=O)[C@H](CO)NC(=O)[C@@H](NC(=O)[C@H](Cc1ccccc1)NC(=O)[C@@H](NC(=O)CNC(=O)[C@H](CCC(N)=O)NC(=O)C(C)(C)NC(=O)[C@@H](N)Cc1c[nH]cn1)[C@@H](C)O)[C@@H](C)O)C(C)C)C(=O)N[C@@H](CCC(=O)O)C(=O)N[C@@H](C)C(=O)NCC(=O)NCC(=O)N1CCC[C@H]1C(=O)N[C@@H](CO)C(=O)N[C@@H](CO)C(=O)NCC(N)=O [Compound 54] (H-H[Aib]QGTFTSDYSKYLEEKRAK([AEEA-AEEA-γGlu-C18 diacid])EFVEWLEAGGPSSG-NH2; N-terminus assumed)	0.219 nM	0.274 nM				−35%	-0.9 g	1.26 mg/mL (≈ 278 µM)	1.08 mg/mL (≈ 238 µM)	1.92 mg/mL (≈ 423 µM)	1.18 mg/mL (≈ 260 µM)			significantly reduced body weight	significantly improved glucose tolerance
CC[C@H](C)[C@H](NC(=O)[C@H](Cc1ccccc1)NC(=O)[C@H](CCC(=O)O)NC(=O)[C@H](CCCCNC(=O)COCCOCCNC(=O)COCCOCCNC(=O)CC[C@H](NC(=O)CCCCCCCCCCCCCCCCC(=O)O)C(=O)O)NC(=O)[C@H](C)NC(=O)[C@H](CCCCN)NC(=O)[C@H](CCCNC(=N)N)NC(=O)[C@H](CCC(=O)O)NC(=O)[C@H](CC(=O)O)NC(=O)[C@H](CC(C)C)NC(=O)[C@H](Cc1ccc(O)cc1)NC(=O)[C@H](CCCCN)NC(=O)[C@H](CO)NC(=O)[C@H](Cc1ccc(O)cc1)NC(=O)[C@H](CC(=O)O)NC(=O)[C@H](CO)NC(=O)[C@@H](NC(=O)[C@H](Cc1ccccc1)NC(=O)[C@@H](NC(=O)CNC(=O)[C@H](CCC(N)=O)NC(=O)C(C)(C)NC(=O)[C@@H](N)Cc1c[nH]cn1)[C@@H](C)O)[C@@H](C)O)C(=O)N[C@@H](CCC(=O)O)C(=O)N[C@@H](Cc1c[nH]c2ccccc12)C(=O)N[C@@H](CC(C)C)C(=O)N[C@@H](CCC(=O)O)C(=O)NCC(=O)NCC(=O)N1CCC[C@H]1C(=O)N[C@@H](CO)C(=O)N[C@@H](CO)C(=O)NCC(N)=O [Compound 66] (H-H[Aib]QGTFTSDYSKYLDERKAK([AEEA-AEEA-γGlu-C18 diacid])EFIEWLEGGPSSG-NH2; N-terminus assumed)	0.051 nM	0.058 nM				−56%	-1.7 g	1.49 mg/mL (≈ 334 µM)	1.42 mg/mL (≈ 318 µM)	> 2 mg/mL	1.88 mg/mL (≈ 421 µM)	−2.7%	−5.1%	significantly reduced body weight	significantly improved glucose tolerance
CCCCCCCCCCCCCCCC(=O)N[C@@H](CCC(=O)N[C@@H](CCC(=O)NCCCC[C@H](NC(=O)[C@H](CC(=O)O)NC(=O)[C@H](CO)NC(=O)[C@@H](NC(=O)[C@H](Cc1ccccc1)NC(=O)[C@@H](NC(=O)CNC(=O)[C@H](CCC(N)=O)NC(=O)C(C)(C)NC(=O)[C@@H](N)Cc1c[nH]cn1)[C@@H](C)O)[C@@H](C)O)C(=O)N[C@@H](CO)C(=O)N[C@@H](CCCCN)C(=O)N[C@@H](Cc1ccc(O)cc1)C(=O)N[C@@H](CC(C)C)C(=O)N[C@@H](CCC(=O)O)C(=O)N[C@@H](CCC(=O)O)C(=O)N[C@@H](CCCNC(=N)N)C(=O)N[C@@H](C)C(=O)N[C@@H](C)C(=O)N[C@@H](CCCCN)C(=O)N[C@@H](CCC(=O)O)C(=O)N[C@@H](Cc1ccccc1)C(=O)N[C@H](C(=O)N[C@@H](CCC(=O)O)C(=O)N[C@@H](Cc1c[nH]c2ccccc12)C(=O)N[C@@H](CC(C)C)C(=O)N[C@@H](CCC(=O)O)C(=O)N[C@@H](C)C(=O)NCC(=O)NCC(=O)N1CCC[C@H]1C(=O)N[C@@H](CO)C(=O)N[C@@H](CO)C(=O)NCC(N)=O)C(C)C)C(=O)O)C(=O)O [Compound 2] (HELM PEPTIDE1{H.[Aib].Q.G.T.F.T.S.D.K.S.K.Y.L.E.E.R.A.A.K.E.F.V.E.W.L.E.A.G.G.P.S.S.G.[am]}|PEPTIDE2{[CCCCCCCCCCCCCCCC(=O)[*:2]].[gGlu].[gGlu]}$PEPTIDE1,PEPTIDE2,10:R3-3:R2$$$V2.0; N-terminus assumed)	0.219 nM	0.0352 nM	22.0%	8.06 ± 2.06 mmol·h/L	61.9** %			> 2 mg/mL	> 2 mg/mL						

From patent publication US12257287B2, “Glucagon-derived peptide and use thereof” (Tianjin Institute of Pharmaceutical Research Co., Ltd., priority 2018, dated 2025)
